From US20250135028A1, “TUNABLE POLYMERIC NANOPARTICLES FOR TARGETED AND SUSTAINED DELIVERY OF GLYCOPEPTIDE ANTIBIOTICS” (Insmed Incorporated, priority 2021, published 2025)

Key:
[1] = Drug loading and encapsulation efficiency of drug loaded PNPs comprising pGlu(0.6C10) (HPLC); assay type: physicochemical; details: 2.5 mg drug
Source text: To assess the ability of pGlu(0.6C10) to load positively charged antibiotics in the form of PNPs, we selected vancomycin, oritavancin, RV40 and RV94 as the drug payload. Vancomycin was chosen as a non-lipoglycopeptide control and the other three payloads were lipoglycopeptides. The polymers we used for loading and encapsulating the antibiotics were PLA(10K)-PEG(2K) (A) obtained from Nanosoft Polymers (Winston-Salem, NC, USA; SKU: 2693), pGlu (D) also obtained from Nanosoft Polymers (SKU: 10069), and pGlu(0.6C10) (E) (FIG. 4).
We prepared the drug loaded PNPs by using 10 mg of polymers and 2.5 mg of drug (FIG. 4). Specifically, polymers (10 mg) and drug (2.5 mg) were dissolved in 1.2 ml organic solvent mixture (DMSO: acetonitrile=0.5:0.7). The solution was injected into 10 ml deionized water stirred with a magnetic stirring bar. 1.1 ml 10×PBS solution was added to suspend nanoparticles in 1×PBS solution. The nanoparticles were washed using Amicon filter (100k cut-off) twice and resuspended in PBS. Drug loading in nanoparticle formulation was determined by HPLC with a WATERS™ T3 column. Acetonitrile/water was used as the mobile phase, and the wavelength of the UV detector was set at 281 nm.
EE is equal to mass of drug (mg) after wash/mass of drug input (i.e., 2.5 mg) *100%. With EE calculated as such, an EE of over 100% may be obtained on certain occasions due to standard error within the analytical measurement and represents complete encapsulation (i.e., 100% EE).

[2] = Drug loading and encapsulation efficiency of drug loaded PNPs comprising pGlu(0.6C10)-PEG (HPLC); assay type: physicochemical; details: 5 mg drug
Source text: To assess the ability of pGlu(0.6C10)-PEG to load positively charged antibiotics in the form of PNPs, we selected vancomycin and RV94 as the antibiotic drug payload in a first study (study 1) (Table 5), and additionally included oritavancin and RV40 as the antibiotic drug payload in a second study (study 2) (Table 6). The polymers we used for loading and encapsulating the antibiotics were PLA-PEG (A) (Nanosoft Polymers, SKU: 2693), pGlu-PEG (B) (Nanosoft Polymers, SKU: 2917), and pGlu(0.6C10)-PEG (C) (FIG. 10).
We prepared the drug loaded PNPs by using 20 mg of polymers and 5 mg of drug (FIG. 10). Specifically, polymers (20 mg) and drug (5 mg) were dissolve in 1 ml organic solvent mixture (DMSO: acetonitrile=1:1). The solution was injected into 20 ml deionized water stirred with a magnetic stirring bar. The nanoparticles were washed using Amicon filter (100k cut-off) twice and resuspended in deionized water. Drug loading in nanoparticle formulation was determined by HPLC with a WATERS™ T3 column. Acetonitrile/water was used as the mobile phase, and the wavelength of the UV detector was set at 281 nm.
Drug loading is equal to mass of drug (mg) after wash/(mass of drug (mg) after wash+mass of polymer input (i.e., 20 mg))*100%.
EE is equal to mass of drug (mg) after wash/mass of drug input (i.e., 5 mg)*100%.

[3] = Pharmacokinetic study of oritavancin-loaded PNPs in rat osteomyelitis model (plasma and tibia, LC-MS/MS); assay type: in vivo; details: osteomyelitis rats, 6 mg/kg intravenous
Source text: A rat model of bacterial osteomyelitis of the tibia was generated via intraosseous injection of MRSA ATCC 43300 at a target challenge dose of 7 log10 CFU of the bacteria per rat. Briefly, rats were anaesthetized by isoflurane and the infection was initiated via injection of the bacteria through the upper condyle of the right tibia into the cancellous bone marrow of a rat. The inoculation was made on the anterior surface of the tibia. The area was located by running a ½ inch 27-gauge needle against the skin, along the anterior crest of the tibia. The needle slipped over the tip of the tuberosity, which was located between the medial and lateral condyles. A rough depression could be felt with the tip of the needle. The patella tendon (silver in color) connected at this point. Once identified, the needle was pushed into the metaphysis using slight pressure and rotating motion. The needle was removed and replaced with a new ½ inch 27 gauge needle, and 30 μL of bacteria was inoculated into the bone marrow cavity. The needle was removed and the animal was allowed to recover from anesthesia.
Three weeks (21 days) after the initiation of the bacterial infection, the osteomyelitis rats were divided into three treatment groups, with five rats in each group. […] The concentrations of oritavancin in the plasma and tibia samples were quantified using LC-MS/MS.

[4] = PNP with PLA-PEG (A) 5 mg + pGlu (D) 5 mg
[5] = PNP with PLA-PEG (A) 5 mg + pGlu(0.6C10) (E) 5 mg
[6] = PNP with PLA-PEG (A) as only polymer, 10 mg polymer
[7] = drug payload only, no polymer (N/A)
[8] = study 2, PLA-PEG (A) 10 mg + pGlu(0.6C10)-PEG (C) 10 mg
[9] = study 2, PLA-PEG (A) 10 mg + pGlu-PEG (B) 10 mg
[10] = study 1, PLA-PEG (A) 10 mg + pGlu(0.6C10)-PEG (C) 10 mg
[11] = study 1, PLA-PEG (A) 10 mg + pGlu-PEG (B) 10 mg
[12] = study 1, PLA-PEG (A) 20 mg only

Compound | Drug loading [1, 4] | Encapsulation efficiency (EE) [1, 4] | Drug loading [1, 5] | Encapsulation efficiency (EE) [1, 5] | Drug loading [1, 6] | Encapsulation efficiency (EE) [1, 6] | Drug loading [1, 7] | Encapsulation efficiency (EE) [1, 7] | Drug loading [2, 8] | Encapsulation efficiency (EE) [2, 8] | Drug loading [2, 9] | Encapsulation efficiency (EE) [2, 9] | Drug loading [2, 10] | Encapsulation efficiency (EE) [2, 10] | Drug loading [2, 11] | Encapsulation efficiency (EE) [2, 11] | Drug loading [2, 12] | Encapsulation efficiency (EE) [2, 12] | also measured
CN[C@H](CC(C)C)C(=O)N[C@H]1C(=O)N[C@@H](CC(N)=O)C(=O)N[C@H]2C(=O)N[C@H]3C(=O)N[C@H](C(=O)N[C@H](C(=O)O)c4cc(O)cc(O)c4-c4cc3ccc4O)[C@H](O[C@H]3C[C@](C)(N)[C@@H](O)[C@H](C)O3)c3ccc(c(Cl)c3)Oc3cc2cc(c3O[C@@H]2O[C@H](CO)[C@@H](O)[C@H](O)[C@H]2O[C@H]2C[C@](C)(NCc3ccc(-c4ccc(Cl)cc4)cc3)[C@@H](O)[C@H](C)O2)Oc2ccc(cc2Cl)[C@H]1O [Ori, oritavancin] | 8.7% | 39.3% | 12.3% | 60.6% | 2.3% | 9.8% | 0.0% | 0.0% | 13.4% | 68.1% | 10.6% | 41.0% | – | – | – | – | – | – | Encapsulation efficiency (EE) ([1]; PNP with PLA-PEG (A) 5 mg + pGlu (D) 5 mg, listed as oritavancin): 39.3%; Encapsulation efficiency (EE) ([1]; PNP with PLA-PEG (A) 5 mg + pGlu(0.6C10) (E) 5 mg, listed as oritavancin): 60.6%; Encapsulation efficiency (EE) ([1]; PNP with PLA-PEG (A) as only polymer, 10 mg polymer, listed as oritavancin): 9.8%; Accumulation of oritavancin in infected tibia compared to uninfected tibia ([3]; 24 h post-injection): preferential accumulation of oritavancin in the infected tibia; Plasma concentrations of oritavancin ([3]; up to 4 hours post-injection): comparable and lower plasma concentrations of oritavancin
CCCCCCCCCCNCCNC1(C)CC(OC2C(Oc3c4cc5cc3Oc3ccc(cc3Cl)C(O)C(NC(=O)C(CC(C)C)NC)C(=O)NC(CC(N)=O)C(=O)NC5C(=O)NC3C(=O)NC(C(=O)CC(C(=O)O)c5cc(O)cc(O)c5-c5cc3ccc5O)C(O)c3ccc(c(Cl)c3)O4)OC(CO)C(O)C2O)OC(C)C1O (stereo not shown) [RV40] | 3.1% | 15.0% | 15.0% | 100.7% | 1.9% | 7.0% | 0.0% | 0.0% | 6.4% | 45.5% | 6.7% | 33.2% | – | – | – | – | – | – | –
CCCCCCCCCCNC(=O)CNC1(C)CC(OC2C(Oc3c4cc5cc3Oc3ccc(cc3Cl)C(O)C3NC(=O)C(NC(=O)C5NC(=O)C(CC(N)=O)NC(=O)C(NC(=O)C(CC(C)C)NC)C(O)c5ccc(c(Cl)c5)O4)c4ccc(O)c(c4)-c4c(O)cc(O)cc4C(C(=O)O)NC3=O)OC(CO)C(O)C2O)OC(C)C1O (stereo not shown) [RV94] | 3.5% | 12.9% | 20.9% | 107.2% | 2.8% | 10.4% | 1.3% | 4.2% | 17.5% | 92.7% | 13.2% | 59.8% | 16.7% | 88.4% | 13.6% | 70.1% | 0.9% | 4.0% | –
CN[C@H](CC(C)C)C(=O)N[C@H]1C(=O)N[C@@H](CC(N)=O)C(=O)N[C@H]2C(=O)N[C@H]3C(=O)N[C@H](C(=O)N[C@H](C(=O)O)c4cc(O)cc(O)c4-c4cc3ccc4O)[C@H](O)c3ccc(c(Cl)c3)Oc3cc2cc(c3O[C@@H]2O[C@H](CO)[C@@H](O)[C@H](O)[C@H]2O[C@H]2C[C@](C)(N)[C@H](O)[C@H](C)O2)Oc2ccc(cc2Cl)[C@H]1O [Vac, vancomycin] | 0.0% | 0.1% | 0.1% | 0.5% | 0.0% | 0.2% | 0.0% | 0.0% | 2.4% | 9.8% | 0.0% | 0.2% | 2.7% | 18.6% | 0.0% | 0.0% | 0.0% | 0.0% | Encapsulation efficiency (EE) ([1]; PNP with PLA-PEG (A) 5 mg + pGlu (D) 5 mg, listed as vancomycin): 0.1%; Encapsulation efficiency (EE) ([1]; PNP with PLA-PEG (A) 5 mg + pGlu(0.6C10) (E) 5 mg, listed as vancomycin): 0.5%; Encapsulation efficiency (EE) ([1]; PNP with PLA-PEG (A) as only polymer, 10 mg polymer, listed as vancomycin): 0.2%; Encapsulation efficiency (EE) ([2]; study 1, PLA-PEG (A) 10 mg + pGlu-PEG (B) 10 mg, listed as vancomycin): 0.0%; Encapsulation efficiency (EE) ([2]; study 1, PLA-PEG (A) 20 mg only, listed as vancomycin): 0.0%
